Assay results taken from US12084472B2 (Ardelyx, Inc., priority 2015, dated 2024).

What follows are molecules tested against T1, human TGR5 (Homo sapiens, UniProt Q8TDU6) (assay: Cell-based TGR5 assay (cAMP generation, HTRF)). Details: HEK293 cells stably transfected with human TGR5; cAMP by HTRF; 30 minutes at 37° C.; read-out: pEC50 Human TGR5 (converted).
T1 construct: expressed in transfected cells; host or cells: HEK293
T1 sequence (Q8TDU6 1-330): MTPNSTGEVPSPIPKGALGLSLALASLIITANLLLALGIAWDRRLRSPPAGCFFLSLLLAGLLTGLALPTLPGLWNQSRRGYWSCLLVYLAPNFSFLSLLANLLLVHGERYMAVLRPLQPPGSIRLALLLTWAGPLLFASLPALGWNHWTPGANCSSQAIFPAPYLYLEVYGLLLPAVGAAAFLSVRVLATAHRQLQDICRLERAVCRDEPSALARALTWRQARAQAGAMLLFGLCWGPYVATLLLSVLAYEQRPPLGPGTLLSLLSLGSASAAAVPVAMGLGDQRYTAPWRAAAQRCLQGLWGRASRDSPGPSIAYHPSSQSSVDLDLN
Procedure, shortened: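 First, compounds in 3-fold serial dilution were placed in HBSS with 10 mM HEPES pH 7.4 and 0.5 mM IBMX. Next, human TGR5-expressing HEK293 cells were added and incubated 30 min at 37° C. Finally, cAMP was detected by HTRF and pEC50 derived by logistic fitting.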

CS(=O)(=O)NCCCN(CCCSc1ccc(Cl)c(CNC2(c3cnccc3-c3ccccc3OC3CC3)CC2)c1)C(=O)[C@@H](O)[C@@H](O)[C@H](O)[C@@H](O)CO [Compound I-588, (2S,3S,4R,5S)-N-[3-({4-chloro-3-[({1-[4-(2-cyclopropoxyphenyl)pyridin-3-yl]cyclopropyl}amino)methyl]phenyl}sulfanyl)propyl]-2,3,4,5,6-pentahydroxy-N-(3-methanesulfonamidopropyl) hexanamide] and CS(=O)(=O)NCCN(CCCCSc1ccc(Cl)c(COC2(c3cnccc3-c3ccccc3OC3CC3)CC2)c1)C(=O)[C@@H](O)[C@@H](O)[C@H](O)[C@@H](O)CO [Compound I-575, (2S,3S,4R,5S)-N-(4-{[4-chloro-3-({1-[4-(2-cyclopropoxyphenyl)pyridin-3-yl]cyclopropoxy}methyl)phenyl]sulfanyl}butyl)-2,3,4,5,6-pentahydroxy-N-(2-methanesulfonamidoethyl) hexanamide] cannot be ordered by EC50: less than 100 nM for the first, less than 100 nM for the second.

First: O=C(CCCCc1cc(Cl)c(CNC2(c3cnccc3-c3ccccc3OC3CC3)CC2)cc1Cl)NC[C@H](O)[C@@H](O)[C@H](O)[C@H](O)CO [Compound I-62, 5-[2,5-dichloro-4-[([1-[4-(2-cyclopropoxyphenyl)pyridin-3-yl]cyclopropyl]amino)methyl]phenyl]-N-[(2S,3R,4R,5R)-2,3,4,5,6-pentahydroxyhexyl]pentanamide]
Second: O=C(NCCCCc1cc(Cl)c(CNC2(c3cnccc3-c3ccccc3OC3CC3)CC2)cc1Cl)NC[C@H](O)[C@@H](O)[C@H](O)[C@H](O)CO [Compound I-138, 1-(4-{2,5-dichloro-4-[({1-[4-(2-cyclopropoxyphenyl)pyridin-3-yl]cyclopropyl}amino)methyl]phenyl}butyl)-3-[(2S,3R,4R,5R)-2,3,4,5,6-pentahydroxyhexyl]urea]
The EC50 of the first is higher: 126 to 1000 nM for the first, less than 100 nM for the second.

First: Cc1cc(COC2(c3cnccc3-c3ccccc3OC3CC3)CC2)c(Cl)cc1CCCCNC(=O)[C@@H](O)[C@@H](O)[C@H](O)[C@@H](O)CO (stereo in doubt) [Compound I-172, (2S,3S,4R,5S)-N-{4-[5-chloro-4-({1-[4-(2-cyclopropoxyphenyl)pyridin-3-yl]cyclopropoxy)methyl)-2-methylphenyl]butyl}-2,3,4,5,6-pentahydroxyhexanamide]
Second: COCCNC(=O)N(CCCCc1cc(Cl)c(COC2(c3cnccc3-c3ccccc3OC3CC3)CC2)cc1Cl)C[C@H](O)[C@@H](O)[C@H](O)[C@H](O)CO [Compound I-76, 1-{4-[2,5-dichloro-4-({1-[4-(2-cyclopropoxyphenyl)pyridin-3-yl]cyclopropoxy}methyl)phenyl]butyl}-3-(2-methoxyethyl)-1-[(2S,3R,4R,5R)-2,3,4,5,6-pentahydroxyhexyl]urea]
The EC50 of the first is lower: less than 100 nM for the first, 126 to 1000 nM for the second.

First: CN(CCCCNC(=O)N[C@@H](CO)[C@@H](O)[C@H](O)[C@H](O)CO)S(=O)(=O)c1cc(CNC2(c3cnccc3-c3ccccc3OC3CC3)CC2)c(Cl)cc1Cl [Compound I-476, 1-(4-{N-methyl2,4-dichloro-5-[({1-[4-(2-cyclopropoxyphenyl)pyridin-3-yl]cyclopropyl}amino)methyl]benzenesulfonamido}butyl)-3-[(2S,3R,4S,5R)-1,3,4,5,6-pentahydroxyhexan-2-yl]urea]
Second: CN(C[C@H](O)[C@@H](O)[C@H](O)[C@H](O)CO)C(=O)CCCCc1cc(Cl)c(CNC2(c3cnccc3-c3ccccc3OC3COC3)CC2)cc1Cl [Compound I-177, 5-(2,5-dichloro-4-{[(1-(4-[2-(oxetan-3-yloxy)phenyl]pyridin-3-yl}cyclopropyl)amino]methyl)phenyl)-N-methyl-N-[(2S,3R,4R,5R)-2,3,4,5,6-pentahydroxyhexyl]pentanamide]
The EC50 of the first is higher: 126 to 1000 nM for the first, less than 100 nM for the second.

O=C1NCCN1CCN(CCCCSc1ccc(Cl)c(CNC2(c3cnccc3-c3ccccc3OC3CC3)CC2)c1)C(=O)[C@@H](O)[C@@H](O)[C@H](O)[C@@H](O)CO [Compound I-624, (2S,3S,4R,5S)-N-[4-({4-chloro-3-[({1-[4-(2-cyclopropoxyphenyl)pyridin-3-yl]cyclopropyl}amino)methyl]phenyl}sulfanyl)butyl]-2,3,4,5,6-pentahydroxy-N-[2-(2-oxoimidazolidin-1-yl)ethyl]hexanamide] and O=C([C@@H](O)[C@@H](O)[C@H](O)[C@@H](O)CO)N(CCCCSc1ccc(Cl)c(COC2(c3cnccc3-c3ccccc3OC3CC3)CC2)c1)CCN1CCS(=O)(=O)CC1 [Compound I-524, (2S,3S,4R,5S)-N-(4-{[4-chloro-3-({1-[4-(2-cyclopropoxyphenyl)pyridin-3-yl]cyclopropoxy}methyl)phenyl]sulfanyl}butyl)-N-[2-(1,1-dioxo-1λ^6,4-thiomorpholin-4-yl)ethyl]-2,3,4,5,6-pentahydroxyhexanamide] fall in the same range of EC50: 126 to 1000 nM for the first, 126 to 1000 nM for the second.

First: CCc1ccc(SCCCC(=O)NC[C@H](O)[C@@H](O)[C@H](O)[C@H](O)CO)cc1COC1(c2cnccc2-c2ccccc2OC2CC2)CC1 [Compound I-497, 4-[[3-([l-[4-(2-Cyclopropoxyphenyl)pyridin-3-yl]cyclopropoxy]methyl)-4-ethylphenyl]sulfanyl]-N-[(2S,3R,4R,5R)-2,3,4,5,6-pentahydroxyhexyl]butanamide]
Second: O=C([C@@H](O)[C@@H](O)[C@H](O)[C@@H](O)CO)N(CCCSc1ccc(Cl)c(COC2(c3cnccc3-c3ccccc3OC3CC3)CC2)c1)CCOCCO [Compound I-518, (2S,3S,4R,5S)-N-(3-{[4-chloro-3-({1-[4-(2-cyclopropoxyphenyl)pyridin-3-yl]cyclopropoxy}methyl)phenyl]sulfanyl}propyl)-2,3,4,5,6-pentahydroxy-N-[2-(2-hydroxyethoxy)ethyl]hexanamide]
The EC50 of the first is higher: 126 to 1000 nM for the first, less than 100 nM for the second.

First: O=C([C@@H](O)[C@@H](O)[C@H](O)[C@@H](O)CO)N(CCCCc1cc(Cl)c(COC2(c3cnccc3-c3ccccc3OC3CC3)CC2)cc1Cl)C1CCOCC1 [Compound I-216, (2S,3S,4R,5S)-N-{4-[2,5-dichloro-4-({1-[4-(2-cyclopropoxyphenyl)pyridin-3-yl]cyclopropoxy}methyl)phenyl]butyl}-2,3,4,5,6-pentahydroxy-N-(oxan-4-yl)hexanamide]
Second: COCC(=O)N(CCCCc1cc(Cl)c(COC2(c3cnccc3-c3ccccc3OC3CC3)CC2)cc1Cl)C[C@H](O)[C@@H](O)[C@H](O)[C@H](O)CO [Compound I-72, N-{4-[2,5-dichloro-4-({1-[4-(2-cyclopropoxyphenyl)pyridin-3-yl]cyclopropoxy}methyl)phenyl]butyl}-2-methoxy-N-[(2S,3R,4R,5R)-2,3,4,5,6-pentahydroxyhexyl]acetamide]
The EC50 of the first is higher: 126 to 1000 nM for the first, less than 100 nM for the second.

First: O=C(NC[C@H](O)[C@@H](O)[C@H](O)[C@H](O)CO)NC1CC2(C1)CN(S(=O)(=O)c1ccc(Cl)c(COC3(c4cnccc4-c4ccccc4OC4CC4)CC3)c1)C2 [Compound I-430, 1-{2-[4-chloro-3-({1-[4-(2-cyclopropoxyphenyl)pyridin-3-yl]cyclopropoxy}methyl)benzenesulfonyl]-2-azaspiro[3.3]heptan-6-yl}-3-[(2S,3R,4R,5R)-2,3,4,5,6-pentahydroxyhexyl]urea]
Second: C=C(CCCNC(=O)NC[C@H](O)[C@@H](O)[C@H](O)[C@H](O)CO)c1ccc(Cl)c(CNC2(c3cnccc3-c3ccccc3OC3CC3)CC2)c1 [Compound I-383, 1-(4-{4-chloro-3-[({1-[4-(2-cyclopropoxyphenyl)pyridin-3-yl]cyclopropyl}amino)methyl]phenyl}pent-4-en-1-yl)-3-[(2S,3R,4R,5R)-2,3,4,5,6-pentahydroxyhexyl]urea]
The EC50 of the first is higher: 126 to 1000 nM for the first, less than 100 nM for the second.

O=C(O)CCC(=O)N(CCCCc1cc(Cl)c(COC2(c3cnccc3-c3ccccc3OC3CC3)CC2)cc1Cl)C[C@H](O)[C@@H](O)[C@H](O)[C@H](O)CO (stereo in doubt) [Compound I-187, 3-({4-[2,5-dichloro-4-({1-[4-(2-cyclopropoxyphenyl)pyridin-3-yl]cyclopropoxy}methyl)phenyl]butyl}[(2S,3R,4R,5R)-2,3,4,5,6-pentahydroxyhexyl]carbamoyl)propanoic acid] and COCCCN(C[C@H](O)[C@@H](O)[C@H](O)[C@H](O)CO)C(=O)CCCC(C)c1ccc(Cl)c(CNC2(c3cnccc3-c3ccccc3OC3CC3)CC2)c1 (stereo partly drawn) [Compound I-338, 5-{4-chloro-3-[({11-[4-(2-cyclopropoxyphenyl)pyridin-3-yl]cyclopropyl}amino)methyl]phenyl}-N-(3-methoxypropyl)-N-[(2S,3R,4R,5R)-2,3,4,5,6-pentahydroxyhexyl]hexanamide] cannot be ordered by EC50: less than 100 nM for the first, less than 100 nM for the second.

First: C[C@H](CCCCC(=O)N(C)C[C@H](O)[C@@H](O)[C@H](O)[C@H](O)CO)c1ccc(Cl)c(CNC2(c3cnccc3-c3ccccc3OC3CC3)CC2)c1 (single isomer, unassigned) [Compound I-329]
Second: COc1ccccc1-c1ccncc1C1(NCc2cc(Cl)ccc2Cl)CC1 [Compound I-4, N-[(2,5-dichlorophenyl)methyl]-1-[4-(2-methoxyphenyl)pyridin-3-yl]cyclopropan-1-amine]
The EC50 of the first is lower: less than 100 nM for the first, 126 to 1000 nM for the second.

Work on O=C(CCCCc1cc(Cl)c(COC2(c3cnccc3-c3ccccc3OC3CC3)CC2)cc1Cl)N[C@@H]1[C@@H](O)[C@H](O)[C@@H](CO)O[C@H]1O [Compound I-154, 5-[2,5-dichloro-4-({1-[4-(2-cyclopropoxyphenyl)pyridin-3-yl]cyclopropoxy}methyl)phenyl]-N-[(2R,3R,4R,5S,6R)-2,4,5-trihydroxy-6-(hydroxymethyl)oxan-3-yl]pentanamide] yielded an EC50 of less than 100 nM.
